Laboratory results published in patent publication US10426772B2, “Use of ergot alkaloids as an anthelmintic agent” (priority 2016, dated 2019).

What was measured:
adult schistosomes = experiment: Adult schistosome mobility assay (Example 1); format: cell-based, Schistosoma mansoni
[1] = tested on: S. mansoni schistosomules; experiment: Schistosomule contractility assay; format: cell-based; conditions: Schistosoma mansoni, read-out: IC50, inhibition of 5-HT evoked contractions
Procedure: FIGS. 14A-14F. […] Effects of selected ligands on schistosomules. […] A contractile cycle is defined when a deviation of ≥20% of the average body length (dashed lines) occurs.
Biomphalaria glabrata (M-line) snails exposed to Schistosoma mansoni miracidia (Strain PR-1) were obtained from BEI Resources (Cat. number NR-21961) and cercaria were shed following exposure to light (1.5 hours). Cercaria were manually transformed into schistosomula by vortexing (3×45 seconds, each separated by 3 minutes on ice) and tails were removed by gradient centrifugation (24 mL Percoll, 4 mL 10×EMEM, 1.5 ml penicillin-streptomycin, 1 mL of 1M HEPES in 0.85% NaCl, 9.5 ml distilled water) at 500 g/15 minutes at 4° C. Supernatant containing tails was discarded, and schistosomules were resuspended in Basch media and incubated (37° C., 5% CO2) overnight before conducting mobility assays. For contractility experiments, somules were incubated in 5-HT free Basch media to resolve a basal contractility rate. […] Schistosomules were incubated in 24 well plates (about 200 schistosomules/0.5 mL media per well) for 30 minutes (37° C./5% CO2) prior to acquiring videos of schistosome movement (1 minute recordings/well) using a Nikon Coolpix 5700 camera affixed to a Nikon Eclipse TS100 microscope (10× objective). The WrmTrck plugin for ImageJ was used to quantify worm mobility (El-Shehabi et al., 2012). Briefly, the major axis of each schistosomule body length was extracted from the raw output of WrmTrck and an average length was determined for the duration of the recording. Contractions were quantified by determining the number of episodes during which the worm body length deviated from the average by over 20%. S. mansoni protocols were approved by the Iowa State University Institutional Biosafety Committee.

Sm.5HTRL = Sm.5HTRL (Schistosoma mansoni, UniProt A0A173FEI8); experiment: GloSensor cAMP assay, HEK293 cells transiently transfected with Sm.5HTRL; format: cell-based; conditions: antagonists 10 μM; 5-HT EC80 dose 0.8 μM (FIG. 8)
Chain of Sm.5HTRL (A0A173FEI8 entry or part of it): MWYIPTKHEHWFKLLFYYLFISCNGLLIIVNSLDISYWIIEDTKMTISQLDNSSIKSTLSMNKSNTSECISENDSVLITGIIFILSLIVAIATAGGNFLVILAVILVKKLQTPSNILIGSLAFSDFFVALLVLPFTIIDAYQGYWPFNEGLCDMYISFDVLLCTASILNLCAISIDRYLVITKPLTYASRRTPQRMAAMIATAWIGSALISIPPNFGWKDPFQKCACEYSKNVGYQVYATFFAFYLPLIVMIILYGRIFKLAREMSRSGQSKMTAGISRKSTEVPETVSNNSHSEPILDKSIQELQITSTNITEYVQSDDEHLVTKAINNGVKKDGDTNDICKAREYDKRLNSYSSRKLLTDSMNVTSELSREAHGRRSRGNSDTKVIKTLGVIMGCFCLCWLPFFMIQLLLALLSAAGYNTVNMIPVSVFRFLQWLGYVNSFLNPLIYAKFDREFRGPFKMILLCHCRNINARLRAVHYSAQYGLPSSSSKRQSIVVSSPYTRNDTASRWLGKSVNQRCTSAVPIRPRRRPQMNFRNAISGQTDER
Procedure: (§1) HEK293 cells (ATCC CRL-1573.3) were cultured in DMEM supplemented with 10% fetal bovine serum (FBS), penicillin (100 units/mL), streptomycin (100 μg/mL), and L-glutamine (290 μg/mL). Cells were transiently transfected (ViaFect, Promega) as per the manufacturer's protocol at a density of 2×10^6 cells per T-25 cell-culture flask. Cells were transfected with plasmids encoding GloSensor (Promega) and either Sm.5HTR, (Smp_126730, GenBank accession number KF444051.1) or Sm.5HTRL (KX150867), both GPCRs being codon optimized for mammalian expression, or Hs.5HT7a (GenBank accession number NM_000872.4, R&D Systems) subcloned into pCS2(−). Cell culture reagents were from Invitrogen. Epitope tagged constructs were used to verify expression, and untagged constructs used for all luminescence assays.
(§2) For assays performed on adherent cells, HEK-293 cells were transferred one day post transfection to 96 well, solid white plates (Corning, cat #3917) coated with 0.01% poly-L-lysine (Sigma Aldrich) at a density of 5×10^4 cells/well in DMEM supplemented with 1% dialyzed FBS (Gibco). After overnight culture (37° C./5% CO2), media was decanted and replaced with 100 μL/well HBSS supplemented with 0.1% BSA, 20 mM HEPES (pH 7.4) and GloSensor™ reagent. Plates were allowed to equilibrate at room temperature for two hours prior to performing luminescence assays (GloMax-Multi Detection System plate reader, Promega). Conditions for individual assays were described as per figure legends. The standard assay to detect changes in cAMP utilized the F22 sensor in media supplemented with IBMX (200 μM). Ligands were added at a concentration of 20× per well for experiments (i.e., 5 μl of drug solution added to 100 μL of cells). […] For the resazurin reduction assay for cellular viability, cells were incubated with resazurin (final concentration, 10 μM) and tested ligands with fluorescence measurements (560 nm excitation/590 nm emission) made at 1.5 hours intervals.

Hs.5HT7R = molecular target: T1, Hs.5HT7R (Homo sapiens, UniProt P34969); experiment: GloSensor cAMP assay, HEK293 cells transiently transfected with Hs.5HT7R; format: cell-based
T1 construct: host or cells: HEK293 (ATCC CRL-1573.3), transient, pCS2(−), co-transfected with GloSensor
T1 sequence (P34969 1-445 isoform P34969-2): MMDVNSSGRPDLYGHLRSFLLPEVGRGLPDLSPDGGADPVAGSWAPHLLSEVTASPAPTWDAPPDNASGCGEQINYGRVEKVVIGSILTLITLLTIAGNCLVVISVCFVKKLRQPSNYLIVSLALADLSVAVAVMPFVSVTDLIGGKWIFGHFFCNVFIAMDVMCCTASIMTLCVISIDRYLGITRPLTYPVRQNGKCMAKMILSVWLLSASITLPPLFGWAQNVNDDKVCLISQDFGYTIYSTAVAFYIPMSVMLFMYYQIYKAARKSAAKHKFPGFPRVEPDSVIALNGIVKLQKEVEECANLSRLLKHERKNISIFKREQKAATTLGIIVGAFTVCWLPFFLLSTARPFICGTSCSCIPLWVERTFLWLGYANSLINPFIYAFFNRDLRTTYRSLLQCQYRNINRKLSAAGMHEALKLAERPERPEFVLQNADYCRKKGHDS
Procedure: as §1, §2
(§3) The protocol for screening is shown schematically in FIG. 5A. HEK293 cells transiently transfected with either the human 5HT7 receptor (Hs.5HT7R) or the schistosome receptor (Sm.5HTR) were exposed to test ligands in a 96-well plate format. […] Luminescence was then read at a fixed time point (t=60 minutes, FIG. 5A). Hits were assigned as compounds that evoked a ≥50% decrease in luminescence output at the fixed time sampling point (FIG. 5B).

Sm.5HTR = Sm.5HTR (Schistosoma mansoni, UniProt G4V5G4); format: cell-based
Chain of Sm.5HTR (G4V5G4 entry or part of it): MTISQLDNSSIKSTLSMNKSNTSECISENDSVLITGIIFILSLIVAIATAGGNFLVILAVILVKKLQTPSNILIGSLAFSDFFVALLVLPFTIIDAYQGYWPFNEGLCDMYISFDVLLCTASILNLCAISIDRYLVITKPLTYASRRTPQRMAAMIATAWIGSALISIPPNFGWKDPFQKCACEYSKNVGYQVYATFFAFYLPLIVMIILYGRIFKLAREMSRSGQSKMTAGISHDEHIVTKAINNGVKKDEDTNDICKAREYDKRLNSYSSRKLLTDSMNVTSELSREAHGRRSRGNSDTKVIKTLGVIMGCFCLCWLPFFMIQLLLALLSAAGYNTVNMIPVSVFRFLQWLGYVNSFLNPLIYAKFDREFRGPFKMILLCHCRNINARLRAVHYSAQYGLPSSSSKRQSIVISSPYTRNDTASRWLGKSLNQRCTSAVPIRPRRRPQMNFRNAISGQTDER
Procedure: as §1, §2, §3

S. mansoni [2] = experiment: Curative efficacy against schistosome infection in mice; format: in vivo, Schistosoma mansoni; conditions: one week
Procedure: Assays testing the curative efficacy of compounds against schistosome infection were performed on mice 6 weeks after exposure to cerceria. Drugs were dosed as follows. Ergotamine (95 mg/kg) was solubilized in 50 μL DMSO and diluted in 200 μL trappsol-saline and delivered by intraperitoneal injection twice a day for one week. Praziquantel (50 mg/kg) was similarly solubilized and injected intraperitoneally once a day for one week. The negative control cohort was given twice daily injections of DMSO (50 μL) added to 200 μL trappsol-saline solution. Mice were weighed and euthanized at 49 days post infection. Worms were harvested and counted as in the hepatic shift assay. Spleen and livers were weighed, and a segment of intestine was excised from the most distal region of the rectum to 10 cm above the cecum. The small and large intestines were separated by cutting immediately above and below the cecum. Each was cut lengthwise to expose the lumen and thoroughly washed in NaCl (1.2%) to remove excrement. Intestines were laid flat with the intestinal mucosa facing upwards and clamped between two glass plates to allow visual inspection of eggs using a stereo microscope.
Mice were injected with vehicle control (dmso), the current frontline anthelmintic (praziquantel) or ergotamine twice daily for one week at starting 42 days post infection.
All animals were sacrificed 49 days post infection, and worms were harvested by dissection of the mesenteric vasculature, portal vein and liver. […] Schistosomes lay large numbers of eggs within the host mesenteric system, and these progress through stages of development over approximately 5 days which can be scored looking at samples of the intestinal mucosa (Pellegrino et al., 1965). Therefore, it is possible to visually determine whether drug treatment has arrested parasite egg laying by observing a lack of developing eggs. Sections of both the large and small intestines were examined and eggs were manually counted and scored according to developmental stage (representative stages of embryo development shown in FIG. 20H-I, top).

S. mansoni [3] = experiment: Hepatic shift assay in infected mice; format: in vivo, Schistosoma mansoni; conditions: intraperitoneal, ergotamine 95, praziquantel 100, methylergometrine 50, lisuride 10, dihydroergotoxine 60 mg/kg, euthanized three hours later
Procedure: Female Swiss Webster mice were exposed to 200 S. mansoni cerceria (NMRI strain) at between 4-6 weeks old. For hepatic shift assays, infections were allowed to mature to 7 weeks, at which point mice were given test compounds by intraperitoneal injection and euthanized […]. Compounds were solubilized in 50 μL DMSO, and diluted in 200 μL 5% w/v trappsol (Cyclodextrin Technologies Development, THPB-p-31 g)+saline (NaCl 0.9%) solution. Immediately after being euthanized, mice were dissected to remove the liver from the portal vein, and the number of worms recovered from the portal vein, mesenteries and liver was recorded for each mouse.
Several experiments using a murine model of schistosomiasis were carried out in order to test the anthelmintic efficacy of Sm.5HTR ligands in vivo. First, the acute effect of drugs were assessed using a “heptic-shift” assay; mature parasites normally reside within the mesenteric vasculature, and upon exposure to anthelmintics they dislodge and are swept to the liver^12,13 where they may be cleared from the host^14 (FIG. 20B-F).
Given that the current anthelmintic therapy, praziquantel, disrupts worms and results in a rapid shift from the mesenteric vasculature to the liver (Melhorn et al., 1981) (FIG. 20B-F), it was hypothesized that Sm.5HTR ligands that disrupt parasite movement would cause a similar hepatic shift. Compounds were delivered by intraperitoneal injection and mice were euthanized three hours later in order to quantify the number of worms found in the mesentaries, portal vein or liver.

| SMILES | effect on 5-HT stimulated movement of adult worms (adult schistosomes; 5-HT 100 μM, male and female worms (FIG. 15G-I)) | effect on basal movement of adult worms (adult schistosomes; no 5-HT, male and female worms (FIG. 15D-F)) | IC50 [1] | inhibition of 5-HT evoked cAMP generation through Sm.5HTRL (Sm.5HTRL) | effect on Hs.5HT7 (Hs.5HT7R; concentrations up to 50 μM) | potency (IC50) at Hs.5HT7R, lower right quadrant of FIG. 13 (Hs.5HT7R; inhibition of cAMP generation) | selectivity Sm.5HTR versus Hs.5HT7R (IC50 (Hs.5HT7R)/IC50 (Sm.5HTR)), in words (Sm.5HTR; antagonism of 5-HT evoked cAMP, FIGS. 7, 12, 13) | potency (IC50) at Sm.5HTR, lower right quadrant of FIG. 13 (Sm.5HTR; inhibition of cAMP generation) | IC50 (Sm.5HTR; read-out: IC50, antagonism of 5-HT evoked cAMP generation at Sm.5HTR, 5-HT at EC80, F22 sensor, IBMX) | protection from liver and spleen enlargement (S. mansoni [2]; infected mice, praziquantel 50 mg/kg i.p. once a day) | decrease in intestinal egg counts (S. mansoni [2]; mice, ergotamine 95 mg/kg twice a day, praziquantel 50 mg/kg once a day, i.p., versus vehicle control) | modulation of Sm.5HTR receptor activity (Sm.5HTR; doses that would convey an antiparasitic effect, FIGS. 10A and E) | % of worm burden found in the liver (S. mansoni [3]) |
| --- | --- | --- | --- | --- | --- | --- | --- | --- | --- | --- | --- | --- | --- |
| COc1cc2c(cc1OC)[C@@H]1Cc3ccc(OC)c(OC)c3CN1CC2 [rotundine] | inhibited the 5-HT evoked increases in worm movement | markedly inhibited worm movements at rest | ≤ 1000 nM | inhibited 5-HT evoked cAMP generation through Sm.5HTRL | lacking any effect | supra-μM potency | clear selectivity for Sm.5HTR | sub-μM potency | 701 ± 207 nM | – | – | – | – |
| O=C(C1CCCCC1)N1CC(=O)N2CCc3ccccc3C2C1 (stereo not shown) [PZQ, praziquantel] | – | – | – | – | – | – | – | – | – | no significant protection from liver and spleen enlargement | 99% | did not reveal any modulation of receptor activity | 68.8±14.1% |
